As a reminder, the EC50 is the midpoint of the concentration-response curve. The Emax is the maximal effect, on the per cent scale that the assay sets.

The target of the first assay is human F508del-CFTR (Homo sapiens, UniProt P13569, DEL508-508). The assay is described as follows: F508del-CFTR cell surface expression (corrector activity), DiscoveRx ß-galactosidase complementation chemiluminescence assay in recombinant U2OS cell line.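 Also: U2OS cells co-expressing ProLink-tagged F508del-CFTR and a membrane-anchored enzyme acceptor, where more surface CFTR restores β-galactosidase activity measured by chemiluminescence.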 The conditions noted are these: EC50, F508del-CFTR cell surface expression, U2OS cell line, 16h compound incubation; geomean values.
human F508del-CFTR, sequence (P13569 with tags, fused parts or gaps DEL508-508): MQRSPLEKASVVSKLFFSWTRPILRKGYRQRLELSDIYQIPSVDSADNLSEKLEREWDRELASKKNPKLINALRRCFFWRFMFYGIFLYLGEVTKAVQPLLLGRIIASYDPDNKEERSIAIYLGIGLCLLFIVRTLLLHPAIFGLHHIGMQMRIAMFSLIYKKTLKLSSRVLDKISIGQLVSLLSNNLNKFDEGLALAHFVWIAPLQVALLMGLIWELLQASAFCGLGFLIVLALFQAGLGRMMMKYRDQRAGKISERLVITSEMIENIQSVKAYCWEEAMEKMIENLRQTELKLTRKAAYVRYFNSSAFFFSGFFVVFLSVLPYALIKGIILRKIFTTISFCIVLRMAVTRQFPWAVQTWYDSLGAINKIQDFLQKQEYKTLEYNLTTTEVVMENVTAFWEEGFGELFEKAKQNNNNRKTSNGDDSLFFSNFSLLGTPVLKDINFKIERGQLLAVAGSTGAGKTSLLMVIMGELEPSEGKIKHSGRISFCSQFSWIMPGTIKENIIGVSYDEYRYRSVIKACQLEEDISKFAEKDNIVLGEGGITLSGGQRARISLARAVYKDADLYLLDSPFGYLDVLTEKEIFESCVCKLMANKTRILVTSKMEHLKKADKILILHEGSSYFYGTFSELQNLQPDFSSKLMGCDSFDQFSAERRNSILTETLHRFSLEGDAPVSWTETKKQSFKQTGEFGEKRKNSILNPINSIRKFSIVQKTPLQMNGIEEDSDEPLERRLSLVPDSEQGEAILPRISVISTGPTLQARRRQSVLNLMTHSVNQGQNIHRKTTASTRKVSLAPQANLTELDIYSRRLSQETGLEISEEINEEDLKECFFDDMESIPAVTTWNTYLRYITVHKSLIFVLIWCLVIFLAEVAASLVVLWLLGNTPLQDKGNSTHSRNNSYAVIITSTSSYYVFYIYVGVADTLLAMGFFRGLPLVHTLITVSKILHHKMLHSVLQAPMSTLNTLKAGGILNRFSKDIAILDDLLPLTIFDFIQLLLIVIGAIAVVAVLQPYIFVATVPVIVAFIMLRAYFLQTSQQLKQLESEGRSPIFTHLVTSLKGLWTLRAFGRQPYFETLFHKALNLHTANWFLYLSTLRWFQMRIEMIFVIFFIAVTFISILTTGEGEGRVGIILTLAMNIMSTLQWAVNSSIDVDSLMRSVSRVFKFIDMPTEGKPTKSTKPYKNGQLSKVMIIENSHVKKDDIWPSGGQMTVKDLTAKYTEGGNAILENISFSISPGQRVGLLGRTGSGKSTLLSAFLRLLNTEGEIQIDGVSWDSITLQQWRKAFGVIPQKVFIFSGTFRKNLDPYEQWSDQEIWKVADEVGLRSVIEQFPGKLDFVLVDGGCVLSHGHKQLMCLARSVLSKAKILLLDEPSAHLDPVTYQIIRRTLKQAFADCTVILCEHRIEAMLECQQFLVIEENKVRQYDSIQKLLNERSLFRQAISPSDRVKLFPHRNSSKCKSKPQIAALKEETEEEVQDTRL
In the case of `COc1cccc2c1C(=O)N[C@H](C(=O)NCCc1ccc3c(c1)CCCO3)CC(=O)N(C)[C@@H](CC(C)C)C(=O)N(CCC1CCCCC1)CC(=O)N[C@H](Cc1ccccc1)CO2` (mixture of isomers) [Example 11, (3R,9S,13RS)-3-benzyl-N-(2-(chroman-6-yl)ethyl)-7-(2-cyclohexylethyl)-9-isobutyl-16-methoxy-10-methyl-5,8,11,15-tetraoxo-2,3,4,5,6,7,8,9,10,11,12,13,14,15-tetradecahydrobenzo[p][1]oxa[4,7,10,14]tetraazacycloheptadecine-13-carboxamide], the 50% effective concentration (EC50) stood at 182 nM.
The same measure, in the same setting: the figure for `COc1cccc2c1C(=O)N[C@H](C(=O)NCCc1ccc3c(c1)OCCCO3)CC(=O)N(C)[C@@H](CC(C)C)C(=O)N(CCC1CCCCC1)CC(=O)N[C@H](Cc1ccccc1)CO2` (mixture of isomers) [Example 12, (3R,9S,13RS)-3-benzyl-7-(2-cyclohexylethyl)-N-(2-(3,4-dihydro-2H-benzo[b][1,4]dioxepin-7-yl)ethyl)-9-isobutyl-16-methoxy-10-methyl-5,8,11,15-tetraoxo-2,3,4,5,6,7,8,9,10,11,12,13,14,15-tetradecahydrobenzo[p][1]oxa[4,7,10,14]tetraazacycloheptadecine-13-carboxamide] is 270 nM.
The same measure, in the same setting: the figure for `COc1cccc2c1C(=O)N[C@H](C(=O)NCCc1ccc3c(c1)OCC3)CC(=O)N(C)[C@@H](CC(C)C)C(=O)N(CCC1CCCCC1)CC(=O)N[C@H](Cc1ccccc1)CO2` (mixture of isomers) [Example 15, (3R,9S,13RS)-3-benzyl-7-(2-cyclohexylethyl)-N-(2-(2,3-dihydrobenzofuran-6-yl)ethyl)-9-isobutyl-16-methoxy-10-methyl-5,8,11,15-tetraoxo-2,3,4,5,6,7,8,9,10,11,12,13,14,15-tetradecahydrobenzo[p][1]oxa[4,7,10,14]tetraazacycloheptadecine-13-carboxamide] is 187 nM.
Turning to `COc1cccc2c1C(=O)N[C@H](C(=O)NCCc1nc3ccccc3o1)CC(=O)N(C)[C@@H](CC(C)C)C(=O)N(CCC1CCCCC1)CC(=O)N[C@H](Cc1ccccc1)CO2` (mixture of isomers) [Example 16, (3R,9S,13RS)-N-(2-(benzo[d]oxazol-2-yl)ethyl)-3-benzyl-7-(2-cyclohexylethyl)-9-isobutyl-16-methoxy-10-methyl-5,8,11,15-tetraoxo-2,3,4,5,6,7,8,9,10,11,12,13,14,15-tetradecahydrobenzo[p][1]oxa[4,7,10,14]tetraazacycloheptadecine-13-carboxamide], the EC50 was 269 nM.
On to `Cc1csc(CCNC(=O)[C@@H]2CC(=O)N(C)[C@@H](CC(C)C)C(=O)N3CCCC[C@@H]3C(=O)N[C@H](Cc3ccccc3)COc3ccc4ncn(C)c4c3C(=O)N2)n1` (mixture of isomers) [Example 23, (8RS,12S,18aR,21R)-21-benzyl-12-isobutyl-5,11-dimethyl-N-(2-(4-methylthiazol-2-yl)ethyl)-6,10,13,19-tetraoxo-6,7,8,9,10,11,12,13,16,17,18,18a,19,20,21,22-hexadecahydro-5H,15H-imidazo[4′,5′:5,6]benzo[1,2-p]pyrido[2,1-f][1]oxa[4,7,10,14]tetraazacycloheptadecine-8-carboxamide], for which the EC50 was found to be 991 nM.
The same measure, in the same setting: in the case of `CC(C)C[C@H]1C(=O)N2CCCC[C@@H]2C(=O)N[C@H](Cc2ccccc2)COc2ccc3ncn(C)c3c2C(=O)N[C@H](C(=O)NCCc2cccc(-n3nccn3)c2)CC(=O)N1C` (mixture of isomers) [Example 28, (8RS,12S,18aR,21R)-N-(3-(2H-1,2,3-triazol-2-yl)phenethyl)-21-benzyl-12-isobutyl-5,11-dimethyl-6,10,13,19-tetraoxo-6,7,8,9,10,11,12,13,16,17,18,18a,19,20,21,22-hexadecahydro-5H,15H-imidazo[4′,5′:5,6]benzo[1,2-p]pyrido[2,1-f][1]oxa[4,7,10,14]tetraazacycloheptadecine-8-carboxamide] it was 603 nM.
As to `COc1cccc(CCNC(=O)[C@@H]2CC(=O)N(C)[C@@H](CC(C)C)C(=O)N(C)CC(=O)N[C@H](Cc3ccccc3)COc3cc4c(cc3C(=O)N2)OCO4)c1OC` (mixture of isomers) [Example 151, (7R,13S,17RS)-7-benzyl-N-(2,3-dimethoxyphenethyl)-13-isobutyl-11,14-dimethyl-9,12,15,19-tetraoxo-6,7,8,9,10,11,12,13,14,15,16,17,18,19-tetradecahydro-[1,3]dioxolo[4′,5′:4,5]benzo[1,2-p][1]oxa[4,7,10,14]tetraazacycloheptadecine-17-carboxamide], the EC50 was found to be 759 nM.
On to `COc1cc2c(cc1OC)C(=O)N[C@H](C(=O)NCCc1ccc3c(c1)CCO3)CC(=O)N(C)[C@@H](CC(C)C)C(=O)N(C)CC(=O)N[C@H](Cc1ccccc1)CO2` (mixture of isomers) [Example 152, (3R,9S,13RS)-3-benzyl-N-(2-(2,3-dihydrobenzofuran-5-yl)ethyl)-9-isobutyl-17,18-dimethoxy-7,10-dimethyl-5,8,11,15-tetraoxo-2,3,4,5,6,7,8,9,10,11,12,13,14,15-tetradecahydrobenzo[p][1]oxa[4,7,10,14]tetraazacycloheptadecine-13-carboxamide], for which the EC50 came to 668 nM.
`COc1cc2c(cc1OC)C(=O)N[C@H](C(=O)NCCc1ccc3c(c1)OCO3)CC(=O)N(C)[C@@H](CC(C)C)C(=O)N(CCC(C)(C)OC)CC(=O)N[C@H](Cc1ccccc1)CO2` (mixture of isomers) [Example 156, (3R,9S,13RS)-N-(2-(benzo[d][1,3]dioxol-5-yl)ethyl)-3-benzyl-9-isobutyl-17,18-dimethoxy-7-(3-methoxy-3-methylbutyl)-10-methyl-5,8,11,15-tetraoxo-2,3,4,5,6,7,8,9,10,11,12,13,14,15-tetradecahydrobenzo[p][1]oxa[4,7,10,14]tetraazacycloheptadecine-13-carboxamide]: the EC50 stood at 647 nM.
As to `CC(C)C[C@H]1C(=O)N(C[C@H]2CCCCO2)CC(=O)N[C@H](Cc2ccccc2)COc2ccc3ccccc3c2C(=O)N[C@H](C(=O)NCCc2ccc3c(c2)OCO3)CC(=O)N1C` (mixture of isomers) [Example 162, (3RS,7S,13R)-N-(2-(benzo[d][1,3]dioxol-5-yl)ethyl)-13-benzyl-7-isobutyl-6-methyl-1,5,8,11-tetraoxo-9-(((R)-tetrahydro-2H-pyran-2-yl)methyl)-1,2,3,4,5,6,7,8,9,10,11,12,13,14-tetradecahydronaphtho[1,2-p][1]oxa[4,7,10,14]tetraazacycloheptadecine-3-carboxamide], the concentration giving a half-maximal response (EC50) is 472 nM.
On the same count and under the same terms, the figure for `COc1cccc(CCNC(=O)[C@@H]2CC(=O)N(C)[C@@H](CC(C)C)C(=O)N(C[C@H]3CCCCO3)CC(=O)N[C@H](Cc3ccccc3)COc3ccc4ccccc4c3C(=O)N2)c1` (mixture of isomers) [Example 164, (3RS,7S,13R)-13-benzyl-7-isobutyl-N-(3-methoxyphenethyl)-6-methyl-1,5,8,11-tetraoxo-9-(((R)-tetrahydro-2H-pyran-2-yl)methyl)-1,2,3,4,5,6,7,8,9,10,11,12,13,14-tetradecahydronaphtho[1,2-p][1]oxa[4,7,10,14]tetraazacycloheptadecine-3-carboxamide] is 519 nM; for `COc1cccc2c1C(=O)N[C@H](C(=O)NCCc1ccc3c(c1)OCO3)CC(=O)N(C)[C@@H](CC1CC1)C(=O)N(CCC1CCCCC1)CC(=O)N[C@H](Cc1ccccc1)CO2` (mixture of isomers) [Example 274, (3R,9S,13RS)-N-(2-(benzo[d][1,3]dioxol-5-yl)ethyl)-3-benzyl-7-(2-cyclohexylethyl)-9-(cyclopropylmethyl)-16-methoxy-10-methyl-5,8,11,15-tetraoxo-2,3,4,5,6,7,8,9,10,11,12,13,14,15-tetradecahydrobenzo[p][1]oxa[4,7,10,14]tetraazacycloheptadecine-13-carboxamide] it is 288 nM.
As for `CN1C(=O)C[C@@H](C(=O)NCCc2ccc3c(c2)OCO3)NC(=O)c2c(ccc3ccccc23)OC[C@@H](Cc2ccccc2)NC(=O)CN(C[C@@H]2CCCCO2)C(=O)[C@@H]1CC1CCCC1` (mixture of isomers) [Example 284, (3RS,7S,13R)-N-(2-(benzo[d][1,3]dioxol-5-yl)ethyl)-13-benzyl-7-(cyclopentylmethyl)-6-methyl-1,5,8,11-tetraoxo-9-(((S)-tetrahydro-2H-pyran-2-yl)methyl)-1,2,3,4,5,6,7,8,9,10,11,12,13,14-tetradecahydronaphtho[1,2-p][1]oxa[4,7,10,14]tetraazacycloheptadecine-3-carboxamide], the EC50 was found to be 337 nM.
For the compound `CN1C(=O)C[C@@H](C(=O)NCCc2ccc3c(c2)OCO3)NC(=O)c2c(ccc3ccccc23)OC[C@@H](Cc2ccccc2)NC(=O)CN(C[C@@H]2CCCCO2)C(=O)[C@@H]1CC1CCCCC1` (mixture of isomers) [Example 285, (3RS,7S,13R)-N-(2-(benzo[d][1,3]dioxol-5-yl)ethyl)-13-benzyl-7-(cyclohexylmethyl)-6-methyl-1,5,8,11-tetraoxo-9-(((S)-tetrahydro-2H-pyran-2-yl)methyl)-1,2,3,4,5,6,7,8,9,10,11,12,13,14-tetradecahydronaphtho[1,2-p][1]oxa[4,7,10,14]tetraazacycloheptadecine-3-carboxamide], the EC50 is 239 nM.
Turning to `CN1C(=O)C[C@@H](C(=O)NCCc2ccc3c(c2)OCO3)NC(=O)c2c(ccc3ccccc23)OC[C@@H](Cc2ccccc2)NC(=O)CN(C[C@H]2CCCCO2)C(=O)[C@@H]1CC1CCCC1` (mixture of isomers) [Example 286, (3RS,7S,13R)-N-(2-(benzo[d][1,3]dioxol-5-yl)ethyl)-13-benzyl-7-(cyclopentylmethyl)-6-methyl-1,5,8,11-tetraoxo-9-(((R)-tetrahydro-2H-pyran-2-yl)methyl)-1,2,3,4,5,6,7,8,9,10,11,12,13,14-tetradecahydronaphtho[1,2-p][1]oxa[4,7,10,14]tetraazacycloheptadecine-3-carboxamide], the EC50 was found to be 177 nM.

The assay is the same for the next values; noted with them: U2OS, in relation to the Emax of the corrector lumacaftor (=100%); U2OS cell line, 16h compound incubation; arithmetic mean values.
With `COc1cc2c(cc1OC)C(=O)N[C@H](C(=O)NCCc1ccc3c(c1)OCO3)CC(=O)N(C)[C@@H](CC(C)C)C(=O)N(CCC(C)(C)OC)CC(=O)N[C@H](Cc1ccccc1)CO2` (mixture of isomers) [Example 156, (3R,9S,13RS)-N-(2-(benzo[d][1,3]dioxol-5-yl)ethyl)-3-benzyl-9-isobutyl-17,18-dimethoxy-7-(3-methoxy-3-methylbutyl)-10-methyl-5,8,11,15-tetraoxo-2,3,4,5,6,7,8,9,10,11,12,13,14,15-tetradecahydrobenzo[p][1]oxa[4,7,10,14]tetraazacycloheptadecine-13-carboxamide], the maximal effect (Emax) stood at 123%.
On the same count and under the same terms, the figure for `COc1cccc2c1C(=O)N[C@H](C(=O)NCCc1ccc3c(c1)OCO3)CC(=O)N(C)[C@@H](CC1CC1)C(=O)N(CCC1CCCCC1)CC(=O)N[C@H](Cc1ccccc1)CO2` (mixture of isomers) [Example 274, (3R,9S,13RS)-N-(2-(benzo[d][1,3]dioxol-5-yl)ethyl)-3-benzyl-7-(2-cyclohexylethyl)-9-(cyclopropylmethyl)-16-methoxy-10-methyl-5,8,11,15-tetraoxo-2,3,4,5,6,7,8,9,10,11,12,13,14,15-tetradecahydrobenzo[p][1]oxa[4,7,10,14]tetraazacycloheptadecine-13-carboxamide] is 186%.

These data come from US20240208992A1, “MACROCYCLES AS CFTR MODULATORS” (Idorsia Pharmaceuticals Ltd, priority 2021, published 2024).
